67 compounds from patent US9963462B2 (priority 2015, dated 2018) can be followed below.

Usually IC50 stands for the concentration needed to halve the response being measured.

SNAP-hSPR (sepiapterin reductase, SPR), sequence (P35270 whole entry): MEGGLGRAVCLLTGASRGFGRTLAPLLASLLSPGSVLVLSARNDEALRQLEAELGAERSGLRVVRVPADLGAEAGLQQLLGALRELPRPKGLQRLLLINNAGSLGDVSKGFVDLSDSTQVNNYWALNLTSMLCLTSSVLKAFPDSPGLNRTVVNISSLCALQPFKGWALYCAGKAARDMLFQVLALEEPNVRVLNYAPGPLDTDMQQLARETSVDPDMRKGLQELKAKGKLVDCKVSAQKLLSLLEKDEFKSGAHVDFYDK

The first test concerns the target SNAP-hSPR (sepiapterin reductase, SPR) (Homo sapiens, UniProt P35270). The experiment in a line: biochemical. Format: binding. The settings on record: terbium labelled SNAP-hSPR / SSZ labelled SNAP-EGFP; read-out: hTR-FRET IC50.
For `Cc1c(C(=O)N2CC[C@H](C)C[C@@H]2C(F)(F)F)cnn1-c1nc2c(c(=O)[nH]1)CCC2` (racemic) [Q-0480], the IC50 worked out at 0.009 µM. On the same count and under the same terms, then `Cc1cc(=O)[nH]c(-n2ncc(C(=O)N3CCc4ccccc4[C@@H]3C)c2C)n1` (single isomer, unassigned) [Q-0339], with 0.009 µM; and `Cc1cc(=O)[nH]c(-n2ncc(C(=O)N3CCc4ccccc4[C@H]3C)c2C)n1` (single isomer, unassigned) [Q-0340], with 0.007 µM. For `Cc1cc(=O)[nH]c(-n2ncc(C(=O)N3c4ccccc4C[C@H]3C)c2C)n1` (single isomer, unassigned) [Q-0361], the IC50 was determined as 0.01 µM. On the same count and under the same terms, the figure for `Cc1cc(=O)[nH]c(-n2ncc(C(=O)N3c4ccccc4C[C@@H]3C)c2C)n1` (single isomer, unassigned) [Q-0372] is 0.005 µM.

Take `Cc1c(C(=O)N2c3ccccc3C[C@H]2C)cnn1-c1nc2ccsc2c(=O)[nH]1` (single isomer, unassigned) [Q-0414]: the half-inhibitory concentration (IC50) is 0.006 µM. The same measure, in the same setting: the figure for `Cc1c(C(=O)N2c3ccccc3C[C@@H]2C)cnn1-c1nc2ccsc2c(=O)[nH]1` (single isomer, unassigned) [Q-0415] is 0.03 µM.

Another test concerns BH4 levels in SK-N-BE (2) cells. The experiment in a line: SKN-N-BE (2) cellular assay, BH4 levels by LC-MS. It is filed as cell-based. The settings on record: Homo sapiens, SKNBE2, read-out: SK-N-BE(2) IC50, SK-N-BE (2) cells, BH4 levels by LC-MS.
Turning to `Cc1c(C(=O)N2CC[C@H](C)C[C@@H]2C(F)(F)F)cnn1-c1nc2c(c(=O)[nH]1)CCC2` (racemic) [Q-0480], the half-maximal inhibitory concentration (IC50) worked out at 0.3 µM. Turning to `Cc1cc(=O)[nH]c(-n2ncc(C(=O)N3CCc4ccccc4[C@@H]3C)c2C)n1` (single isomer, unassigned) [Q-0339], the 50% inhibitory concentration (IC50) was 1.5 µM. Same read-out and setting: the figure for `Cc1cc(=O)[nH]c(-n2ncc(C(=O)N3CCc4ccccc4[C@H]3C)c2C)n1` (single isomer, unassigned) [Q-0340] is 1.1 µM; for `Cc1cc(=O)[nH]c(-n2ncc(C(=O)N3c4ccccc4C[C@H]3C)c2C)n1` (single isomer, unassigned) [Q-0361] it is 0.6 µM. Still for that read-out and setting: the figure for `Cc1cc(=O)[nH]c(-n2ncc(C(=O)N3c4ccccc4C[C@@H]3C)c2C)n1` (single isomer, unassigned) [Q-0372] is 0.3 µM. The same measure, in the same setting: the figure for `Cc1c(C(=O)N2c3ccccc3C[C@H]2C)cnn1-c1nc2ccsc2c(=O)[nH]1` (single isomer, unassigned) [Q-0414] is 0.3 µM; for `Cc1c(C(=O)N2c3ccccc3C[C@@H]2C)cnn1-c1nc2ccsc2c(=O)[nH]1` (single isomer, unassigned) [Q-0415] it is 1.2 µM; for `Cc1c(C(=O)N2CC(C(F)(F)F)CC(C(F)(F)F)C2)cnn1-c1nn2cccc2c(=O)[nH]1` (centres unmarked) [Q-0967] it is 1.9 µM. Regarding `Cc1c(C(=O)N2[C@H](C)CN(C(=O)OC(C)(C)C)C[C@@H]2C)cnn1-c1nn2cccc2c(=O)[nH]1` [Q-0968], the IC50 was 0.4 µM.

`Cc1c(C(=O)N2C3CCC2CC(N(C)C(=O)c2ccccc2)C3)cnn1-c1nn2cccc2c(=O)[nH]1` (centres unmarked) [Q-0970]: the IC50 stood at 0.4 µM. Take `Cc1c(C(=O)N2C[C@@H]3CCS(=O)(=O)[C@@H]3C2)cnn1-c1nn2cccc2c(=O)[nH]1` [Q-0971]: the IC50 was 7.2 µM.

As for `Cc1ccc(OC2CC3CCC(C2)N3C(=O)c2cnn(-c3nn4cccc4c(=O)[nH]3)c2C)cc1` (centres unmarked) [Q-0974], the IC50 came to 0.1 µM. Still for that read-out and setting: the figure for `Cc1c(C(=O)N2CCN(c3nnc(C(F)(F)F)s3)CC2)cnn1-c1nn2cccc2c(=O)[nH]1` [Q-0975] is 1.3 µM; for `COC1CCN(C(=O)c2cnn(-c3nn4cccc4c(=O)[nH]3)c2C)CC1` [Q-0976] it is 1.1 µM; for `Cc1c(C(=O)N2CC(OCC(F)F)C2)cnn1-c1nn2cccc2c(=O)[nH]1` [Q-0979] it is 1.4 µM. Still for that read-out and setting: the figure for `Cc1c(C(=O)N2CCN(CC(F)(F)F)C(=O)C2)cnn1-c1nn2cccc2c(=O)[nH]1` [Q-0980] is 1.3 µM; for `Cc1c(C(=O)N2CC(N3CC(F)C3)C2)cnn1-c1nn2cccc2c(=O)[nH]1` [Q-0981] it is 1.4 µM. Take `Cc1c(C(=O)N2CCN(C(C#N)C(C)C)CC2)cnn1-c1nn2cccc2c(=O)[nH]1` (centres unmarked) [Q-0982]: the IC50 was 10 µM.

With `Cc1c(C(=O)N2CCC(c3nnc4n3CCC4)CC2)cnn1-c1nn2cccc2c(=O)[nH]1` [Q-0983], the 50% inhibitory concentration (IC50) is 10 µM. Same read-out and setting: then `Cc1c(C(=O)N2CCC(n3nccc3C(F)(F)F)CC2)cnn1-c1nn2cccc2c(=O)[nH]1` [Q-0984], with 0.4 µM; and `Cc1c(C(=O)N2CC(N3CCC3)C2)cnn1-c1nn2cccc2c(=O)[nH]1` [Q-0985], with 9.2 µM.

Turning to `Cc1c(C(=O)N2CC(OCC(F)(F)F)C2)cnn1-c1nn2cccc2c(=O)[nH]1` [Q-0987], the IC50 amounted to 1.1 µM. Same read-out and setting: the figure for `Cc1c(C(=O)N2CCC(C3(C#N)CCCC3)CC2)cnn1-c1nn2cccc2c(=O)[nH]1` [Q-0988] is 0.069 µM; for `Cc1c(C(=O)N2C3CCCC2CN(Cc2ccccc2)C3)cnn1-c1nn2cccc2c(=O)[nH]1` [Q-0989] it is 0.9 µM. Same read-out and setting: the figure for `Cc1c(C(=O)N2CCC(F)(c3ccc(Cl)cc3)CC2)cnn1-c1nn2cccc2c(=O)[nH]1` [Q-0990] is 0.2 µM; for `O=C(c1cn(-c2nn3cccc3c(=O)[nH]2)nc1Cl)N1CCC(C(F)(F)F)CC1` [Q-0991] it is 0.1 µM; for `Cc1c(C(=O)N2CCC(N3CCC(F)(F)C3)C2)cnn1-c1nn2cccc2c(=O)[nH]1` (centres unmarked) [Q-0994] it is 3 µM.

On to `Cc1c(C(=O)N2CCC(F)(c3ccc(F)cc3)C2)cnn1-c1nn2cccc2c(=O)[nH]1` (centres unmarked) [Q-0996], for which the IC50 is 1.9 µM. With `Cc1c(C(=O)N2CC[C@H](OCc3cnc(Cl)s3)C2)cnn1-c1nn2cccc2c(=O)[nH]1` [Q-0997], the IC50 came out at 1 µM. As for `Cc1c(C(=O)N2CCC(C3(C#N)CCC3)CC2)cnn1-c1nn2cccc2c(=O)[nH]1` [Q-0999], the IC50 turned out to be 0.2 µM. Same read-out and setting: the figure for `Cc1c(C(=O)N2CC(OCc3ccc(F)c(F)c3)C2)cnn1-c1nn2cccc2c(=O)[nH]1` [Q-1000] is 0.9 µM; for `Cc1c(C(=O)N2CC3CC2C[C@@H]3C#N)cnn1-c1nn2cccc2c(=O)[nH]1` (some centres unmarked) [Q-1001] it is 1.8 µM.

`Cc1c(C(=O)N2CC3CC2C[C@H]3C#N)cnn1-c1nn2cccc2c(=O)[nH]1` (some centres unmarked) [Q-1002]: the IC50 was 3.4 µM. For `Cc1c(C(=O)N2Cc3cc(C(F)(F)F)cnc3C2)cnn1-c1nn2cccc2c(=O)[nH]1` [Q-1004], the IC50 was determined as 3.1 µM.

On to `COC1(C(F)(F)F)CCCN(C(=O)c2cnn(-c3nn4cccc4c(=O)[nH]3)c2C)C1` (centres unmarked) [Q-1006], for which the IC50 is 1.4 µM. The same measure, in the same setting: the figure for `Cc1c(C(=O)Nc2ccc(F)cc2C(C)(C)O)cnn1-c1nn2cccc2c(=O)[nH]1` [Q-1008] is 0.3 µM; for `Cc1c(C(=O)N2CC(N3CC[C@@H](F)C3)C2)cnn1-c1nn2cccc2c(=O)[nH]1` [Q-1009] it is 2 µM; for `Cc1c(C(=O)N2CCC(N3CC[C@@H](F)C3)C2)cnn1-c1nn2cccc2c(=O)[nH]1` (some centres unmarked) [Q-1010] it is 4 µM. On the same count and under the same terms, then `Cc1c(C(=O)N2CC[C@@H](OCc3cnc(Cl)s3)C2)cnn1-c1nn2cccc2c(=O)[nH]1` [Q-1011], with 0.8 µM; and `Cc1c(C(=O)N2CCN(C(=O)Cc3ccccc3F)CC2)cnn1-c1nn2cccc2c(=O)[nH]1` [Q-1012], with 1.3 µM; and `Cc1c(C(=O)N2Cc3cc(Cl)cnc3C2)cnn1-c1nn2cccc2c(=O)[nH]1` [Q-1013], with 1.5 µM. With `Cc1c(C(=O)N2CCC[C@@H](OCC(F)(F)F)C2)cnn1-c1nn2cccc2c(=O)[nH]1` [Q-1014], the half-maximal inhibitory concentration (IC50) stood at 1.4 µM. Still for that read-out and setting: then `Cc1c(C(=O)N2CCC(N3CCCC(C(F)(F)F)C3)CC2)cnn1-c1nn2cccc2c(=O)[nH]1` (centres unmarked) [Q-1015], with 0.4 µM. With `Cc1c(C(=O)N2CCC(N3CCC[C@@H](F)C3)C2)cnn1-c1nn2cccc2c(=O)[nH]1` (some centres unmarked) [Q-1016], the IC50 stood at 2.4 µM. Same read-out and setting: the figure for `CCC(C#N)C1CCN(C(=O)c2nnn(-c3nn4cccc4c(=O)[nH]3)c2C)CC1` (centres unmarked) [Q-1017] is 0.3 µM; for `Cc1c(C(=O)N2CCC3(CCN(CCC(F)(F)F)C3)CC2)cnn1-c1nn2cccc2c(=O)[nH]1` [Q-1018] it is 0.7 µM.

In the case of `Cc1c(C(=O)N2CCC(N3CCC[C@@H]3C(F)(F)F)CC2)cnn1-c1nn2cccc2c(=O)[nH]1` [Q-1019], the half-maximal inhibitory concentration (IC50) is 0.4 µM. Regarding `Cc1c(C(=O)N2CC(N3CCC(F)CC3)C2)cnn1-c1nn2cccc2c(=O)[nH]1` [Q-1021], the IC50 amounted to 1 µM. Same read-out and setting: the figure for `Cc1c(C(=O)N2CC3(C2)CC(F)(F)C3)cnn1-c1nc2c(c(=O)[nH]1)CCC2` [Q-1023] is 0.7 µM; for `Cc1c(C(=O)N2CC(N3CCC[C@H](F)C3)C2)cnn1-c1nn2cccc2c(=O)[nH]1` [Q-1025] it is 1.2 µM; for `Cc1c(C(=O)N2CCC(N3CCC[C@H](F)C3)C2)cnn1-c1nn2cccc2c(=O)[nH]1` (some centres unmarked) [Q-1026] it is 1.7 µM. As for `Cc1c(C(=O)N2CCC(N3CCC(F)CC3)C2)cnn1-c1nn2cccc2c(=O)[nH]1` (centres unmarked) [Q-1027], the IC50 came to 3.1 µM. As to `Cc1c(C(=O)N2CCC(O)(Cc3ccc(F)cc3)C2)cnn1-c1nn2cccc2c(=O)[nH]1` (centres unmarked) [Q-1028], the IC50 amounted to 1.1 µM. On the same count and under the same terms, then `Cc1c(C(=O)N2CCC(N3CCC[C@H]3C(F)(F)F)CC2)cnn1-c1nn2cccc2c(=O)[nH]1` [Q-1029], with 1 µM. As for `Cc1c(C(=O)N2CCC(N3CC[C@H](F)C3)C2)cnn1-c1nn2cccc2c(=O)[nH]1` (some centres unmarked) [Q-1030], the IC50 was 3.1 µM. On the same count and under the same terms, the figure for `Cc1c(C(=O)N2CC(N3CC[C@H](F)C3)C2)cnn1-c1nn2cccc2c(=O)[nH]1` [Q-1031] is 2.3 µM. Same read-out and setting: then `Cc1c(C(=O)N2CC(N3CC(O)(C(F)(F)F)C3)C2)cnn1-c1nn2cccc2c(=O)[nH]1` [Q-1032], with 10 µM; and `Cc1c(C(=O)N2CC3CCCC(C2)N3CC(F)(F)F)cnn1-c1nn2cccc2c(=O)[nH]1` [Q-1035], with 0.1 µM; and `Cc1c(C(=O)N2CC3CCCC(C2)N3CCC(F)(F)F)cnn1-c1nn2cccc2c(=O)[nH]1` [Q-1036], with 0.07 µM. On the same count and under the same terms, then `Cc1c(C(=O)N2C3CCC2CC(F)(c2ccc(Cl)cc2)C3)cnn1-c1nn2cccc2c(=O)[nH]1` (centres unmarked) [Q-1037], with 0.071 µM; and `Cc1c(C(=O)N2CCC(C)C(F)C2)cnn1-c1nn2cccc2c(=O)[nH]1` (centres unmarked) [Q-1039], with 0.3 µM. For `Cc1c(C(=O)N2CCC(C)CC2)cnn1-c1nn2cccc2c(=O)[nH]1` [Q-1040], the IC50 was found to be 0.3 µM. Same read-out and setting: the figure for `Cc1c(C(=O)N2CC(N3CC(F)(C(F)(F)F)C3)C2)cnn1-c1nn2cccc2c(=O)[nH]1` [Q-1042] is 1 µM. Same read-out and setting: the figure for `Cc1c(C(=O)N2CC[C@@H](COc3nccc(Cl)n3)C2)cnn1-c1nn2cccc2c(=O)[nH]1` [Q-1043] is 1.4 µM. Take `Cc1c(C(=O)N2CCC[C@H](OCC(F)(F)F)C2)cnn1-c1nn2cccc2c(=O)[nH]1` [Q-1044]: the IC50 was determined as 1 µM. The same measure, in the same setting: the figure for `Cc1c(C(=O)N2CC3CCCC(C2)N3C(=O)OC(C)(C)C)cnn1-c1nc2c(c(=O)[nH]1)CCC2` [Q-1045] is 0.1 µM. Take `Cc1c(C(=O)N2CCC(F)(F)C2)cnn1-c1nn2cccc2c(=O)[nH]1` [Q-1050]: the half-maximal inhibitory concentration (IC50) worked out at 1.4 µM.
